≈ marks a conversion by molar mass, not a printed value. Read-outs that look alike come from different tables or passages of the source.
What was measured:
Format in all cases: cell-based
[1] = tested on: Clavibacter michiganensis ssp. sepedonicus; experiment: activity against potato pathogens, MIC; settings: read-out: MIC Clavibacter michiganensis ssp. sepedonicus
HUVEC = experiment: antiproliferative effect, standardized assay
Description: (§1) The activity and more specifically the bioactivity of the compounds according to the present invention can be assessed using appropriate assays known to those skilled in the art, e.g. in vitro or in vivo assays. For instance, the antimicrobial activity may be determined using a standardized antibiotic assay^[1], and the antiproliferative and/or cytotoxic activity may be determined via a standardized assay as described in reference.
(§2) Antiproliferative and cytotoxic activity of clostrubin A was tested in a standardized assay^[2].

K-562 = experiment: antiproliferative effect, standardized assay; settings: Homo sapiens, K562
Description: as §1, §2

Bacillus pumilus = experiment: microbe, parasite or virus in culture; settings: potato soft rot pathogen
Description: (§3) The antimicrobial activity of clostrubin A (1) and clostrubin B (2) against the serious potato pathogens Bacillus pumilus (causing potato soft rot), Clavibacter michiganensis ssp. sepedonicus (causing potato ring rot), and Streptomyces scabies (causing potato scab) was tested.

Streptomyces scabies = experiment: microbe, parasite or virus in culture; settings: Streptomyces scabiei; potato scab pathogen
Description: as §3

Mycobacterium vaccae = experiment: anti-mycobacterial activity, MIC; settings: Mycolicibacterium vaccae
Description: as §1
(§4) The antibiotic activity of clostrubin A was tested using a standardized antibiotic assay^[1]. […]. A similar antimicrobial activity as against MRSA was observed against Mycobacterium smegmatis (M smegmatis), Mycobacterium aurum (M aurum), Mycobacterium vaccae (M vaccae) and Mycobacterium fortuitum (M fortuitum)—see, Table 3.

Mycobacterium smegmatis = experiment: anti-mycobacterial activity, MIC; settings: Mycolicibacterium smegmatis
Description: as §1, §4

Mycobacterium aurum = experiment: anti-mycobacterial activity, MIC; settings: Mycolicibacterium aurum
Description: as §1, §4

Mycobacterium fortuitum = experiment: anti-mycobacterial activity, MIC; settings: Mycolicibacterium fortuitum
Description: as §1, §4

Bs = experiment: standardized antibiotic assay, MIC, Bs
Description: as §1, §4

[2] = tested on: vancomycin-resistant enterococci (VRE); experiment: standardized antibiotic assay, MIC, VRE; settings: Enterococcus
Description: as §1, §4

Escherichia coli = experiment: standardized antibiotic assay, MIC, Ec; settings: for MIC: Escherichia coli (Gram-negative)
Description: as §1, §4

[3] = tested on: methicillin-resistant Staphylococcus aureus (MRSA); experiment: standardized antibiotic assay, MIC, MRSA
Description: as §1, §4

HeLa = experiment: cytotoxicity, standardized assay; settings: summary of Table 4 (HeLa)
Description: as §1, §2

[4] = cytotoxicity, standardized assay; settings: human, HeLa cells
Description: as §1, §2

Structure (SMILES)	MIC [1] [µM]	GI50 (HUVEC; Homo sapiens, HUVEC) [nM]	antiproliferative activity (in words) (HUVEC; summary of Table 4 (HUVEC, K-562))	GI50 (K-562) [nM]	MIC (Bacillus pumilus) [µM]	MIC (Streptomyces scabies) [µM]	MIC (Mycobacterium vaccae) [µM]	MIC (Mycobacterium smegmatis) [µM]	MIC (Mycobacterium aurum) [µM]	MIC (Mycobacterium fortuitum) [µM]	MIC (Bs) [µM]	MIC ([2]; read-out: MIC VRE) [µM]	MIC ([2]; read-out: minimum inhibitory concentration (MIC) VRE) [µg/mL]	MIC (Escherichia coli) [µM]	antibiotic activity against Escherichia coli (in words) (Escherichia coli; Gram-negative organism)	MIC ([3]; read-out: MIC MRSA) [µM]	MIC ([3]; read-out: minimum inhibitory concentration (MIC) MRSA) [µg/mL]	cytotoxic activity (in words) (HeLa)	CC50 [4] [nM]
CC(=O)c1ccc2c(c1O)c(O)c1c3c(c(O)cc(C)c32)C(=O)c2c(O)cc(C)cc2-1 [Compound 1, clostrubin A]	0.0947 (≈ 0.0392 µg/mL)	1200	moderate	2660	0.047 (≈ 0.0195 µg/mL)	0.0947 (≈ 0.0392 µg/mL)	0.12 (≈ 0.0497 µg/mL)	0.48 (≈ 0.199 µg/mL)	0.12 (≈ 0.0497 µg/mL)	0.12 (≈ 0.0497 µg/mL)	0.075 (≈ 0.0311 µg/mL)	0.97	0.4	> 60	ineffective	0.12	0.05	moderate	1690
COCC(O)C(O)C(O)C(=O)c1c(C)cc2c(c1O)C(=O)c1c(O)cc(C)c3c1c-2c(O)c1c(O)c(C(C)=O)ccc13 (stereo not drawn) [Compound 2, clostrubin B]	0.542 (≈ 0.312 µg/mL)				0.542 (≈ 0.312 µg/mL)	0.271 (≈ 0.156 µg/mL)													
O=C(O)c1cn(C2CC2)c2cc(N3CCNCC3)c(F)cc2c1=O [Cip, ciprofloxacin, reference compound]							1.2 (≈ 0.398 µg/mL)	4.71 (≈ 1.56 µg/mL)	0.3 (≈ 0.0994 µg/mL)	0.6 (≈ 0.199 µg/mL)	0.08 (≈ 0.0265 µg/mL)	2.3		0.01 (≈ 0.00331 µg/mL)		37			
